≈ marks a conversion by molar mass, not a printed value. Read-outs that look alike come from different tables or passages of the source.
How the values were obtained:
[1] = test system: S. aureus strains (14 mecC MRSA, 2 mecA MRSA, ATCC 29213 MSSA); test: Broth microdilution MIC determination; assay type: cell-based, Staphylococcus aureus; settings: Staphylococcus aureus; for MIC: read-out: MIC; for MIC90: mecC strains, read-out: MIC90
Description: The S. aureus (SA) strains used in this study were: ATCC 43300 (mecA methicillin-resistant SA [MRSA]); ATCC 33591 (mecA MRSA), ATCC 29213 (methicillin-susceptible SA; quality control strain) and 14 mecC MRSA obtained from the Staten Serum Institute (Copenhagen, Denmark).
Tests with oritavancin included polysorbate-80 (final test concentration of 0.002%) as described (CLSI 2012a; Arhin et al., 2008). Tests with daptomycin included CaCl2 at a concentration of 50 mg/L. MICs were read after 24 h incubation.

[2] = test system: S. aureus strains (14 mecC MRSA, 2 mecA MRSA, ATCC 29213 MSSA); test: In vitro time-kill assays at free peak and free trough concentrations; assay type: cell-based, Staphylococcus aureus; settings: for Time to cidality (≧3 log decrease): daptomycin ƒCmax 4 mg/L; for Change in cell density at 24 h relative to starting inoculum: daptomycin ƒCmin 0.5 mg/L
Description: Viable cell count was determined by serial dilution plating, including the use of 25 g/L charcoal suspension to limit antibiotic carryover. […] Time-kill assays were repeated at least twice independently; results presented are from a representative experiment.
Doubling dilution concentrations of comparator agents were likewise chosen to approximate their fCmax and fCmin levels in plasma when administered at approved dosages for complicated skin and skin structure infections, using pharmacokinetic data and protein binding values from their respective package inserts (DAP [Cubicin®]; LZD [Zyvox®]; VAN [Vancocin®]; Table 3).

[3] = ATCC 29213 / ATCC 33591 / MRSA / MSSA, ATCC 33591 MRSA (mecA)
[4] = ATCC 29213 / ATCC 43300 / MRSA / MSSA, ATCC 43300 MRSA (mecA)

## CC(=O)NC[C@H]1CN(c2ccc(N3CCOCC3)c(F)c2)C(=O)O1 [Linezolid, linezolid]
[1]; 57147 MRSA (mecC)
  MIC: 2 µg/mL (≈ 5.93 µM)
[1]; 70611 MRSA (mecC)
  MIC: 2 µg/mL (≈ 5.93 µM)
[1]; 73348 MRSA (mecC)
  MIC: 2 µg/mL (≈ 5.93 µM)
[1]; 73415 MRSA (mecC)
  MIC: 2 µg/mL (≈ 5.93 µM)
[1]; 73617 MRSA (mecC)
  MIC: 2 µg/mL (≈ 5.93 µM)
[1]; 73829 MRSA (mecC)
  MIC: 2 µg/mL (≈ 5.93 µM)
[1]; 75814 MRSA (mecC)
  MIC: 2 µg/mL (≈ 5.93 µM)
[1]; 76918 MRSA (mecC)
  MIC: 2 µg/mL (≈ 5.93 µM)
[1]; 77431 MRSA (mecC)
  MIC: 2 µg/mL (≈ 5.93 µM)
[1]; 77601 MRSA (mecC)
  MIC: 2 µg/mL (≈ 5.93 µM)
[1]; 77950 MRSA (mecC)
  MIC: 2 µg/mL (≈ 5.93 µM)
[1]; 77964 MRSA (mecC)
  MIC: 2 µg/mL (≈ 5.93 µM)
[1]; 78085 MRSA (mecC)
  MIC: 2 µg/mL (≈ 5.93 µM)
[1]; 78651 MRSA (mecC)
  MIC: 2 µg/mL (≈ 5.93 µM)
[1]; ATCC 29213 (MSSA)
  MIC: 2 µg/mL (≈ 5.93 µM)
[1]; [3]
  MIC: 2 µg/mL (≈ 5.93 µM)
[1]; [4]
  MIC: 1 µg/mL (≈ 2.96 µM)
[1]; all strains tested
  MIC: 1 to 2 µg/mL (≈ 2.96 to 5.93 µM)
[1]
  MIC90: 2 µg/mL (≈ 5.93 µM)
[2]; all tested strains, both fCmin and fCmax
  Activity in time-kill assay: little to no effect or was bacteriostatic

## CCCCCCCCCC(=O)N[C@@H](Cc1c[nH]c2ccccc12)C(=O)N[C@H](CC(N)=O)C(=O)N[C@@H](CC(=O)O)C(=O)N[C@@H]1C(=O)NCC(=O)N[C@@H](CCCN)C(=O)N[C@@H](CC(=O)O)C(=O)N[C@H](C)C(=O)N[C@@H](CC(=O)O)C(=O)NCC(=O)N[C@H](CO)C(=O)N[C@@H]([C@H](C)CC(=O)O)C(=O)N[C@@H](CC(=O)c2ccccc2N)C(=O)O[C@@H]1C [Daptomycin, daptomycin]
[1]; 57147 MRSA (mecC)
  MIC: 0.5 µg/mL (≈ 0.309 µM)
[1]; 70611 MRSA (mecC)
  MIC: 0.5 µg/mL (≈ 0.309 µM)
[1]; 73348 MRSA (mecC)
  MIC: 0.5 µg/mL (≈ 0.309 µM)
[1]; 73415 MRSA (mecC)
  MIC: 1 µg/mL (≈ 0.617 µM)
[1]; 73617 MRSA (mecC)
  MIC: 1 µg/mL (≈ 0.617 µM)
[1]; 73829 MRSA (mecC)
  MIC: 0.5 µg/mL (≈ 0.309 µM)
[1]; 75814 MRSA (mecC)
  MIC: 0.5 µg/mL (≈ 0.309 µM)
[1]; 76918 MRSA (mecC)
  MIC: 0.5 µg/mL (≈ 0.309 µM)
[1]; 77431 MRSA (mecC)
  MIC: 1 µg/mL (≈ 0.617 µM)
[1]; 77601 MRSA (mecC)
  MIC: 0.5 µg/mL (≈ 0.309 µM)
[1]; 77950 MRSA (mecC)
  MIC: 0.5 µg/mL (≈ 0.309 µM)
[1]; 77964 MRSA (mecC)
  MIC: 0.5 µg/mL (≈ 0.309 µM)
[1]; 78085 MRSA (mecC)
  MIC: 1 µg/mL (≈ 0.617 µM)
[1]; 78651 MRSA (mecC)
  MIC: 0.5 µg/mL (≈ 0.309 µM)
[1]; ATCC 29213 (MSSA)
  MIC: 0.5 µg/mL (≈ 0.309 µM)
[1]; [3]
  MIC: 1 µg/mL (≈ 0.617 µM)
[1]; [4]
  MIC: 0.5 µg/mL (≈ 0.309 µM)
[1]; all strains tested
  MIC: 0.5 to 1 µg/mL (≈ 0.309 to 0.617 µM)
[1]
  MIC90: 1 µg/mL (≈ 0.617 µM)
[2]; 57147 (mecC)
  Time to cidality (≧3 log decrease): 1-2 h
  Change in cell density at 24 h relative to starting inoculum: +2.7 log CFU/mL
[2]; 70611 (mecC)
  Time to cidality (≧3 log decrease): 1-2 h
  Change in cell density at 24 h relative to starting inoculum: +1.5 log CFU/mL
[2]; 73348 (mecC)
  Change in cell density at 24 h relative to starting inoculum: +2.6 log CFU/mL
[2]; 73415 (mecC)
  Time to cidality (≧3 log decrease): 2-4 h
  Change in cell density at 24 h relative to starting inoculum: +1.5 log CFU/mL
[2]; 73617 (mecC)
  Time to cidality (≧3 log decrease): 1-2 h
  Change in cell density at 24 h relative to starting inoculum: +3.4 log CFU/mL
[2]; 73829 (mecC)
  Time to cidality (≧3 log decrease): 1-2 h
  Change in cell density at 24 h relative to starting inoculum: +2.1 log CFU/mL
[2]; 75814 (mecC)
  Time to cidality (≧3 log decrease): 1-2 h
  Change in cell density at 24 h relative to starting inoculum: +3.6 log CFU/mL
[2]; 76918 (mecC)
  Time to cidality (≧3 log decrease): 1-2 h
  Change in cell density at 24 h relative to starting inoculum: +1.5 log CFU/mL
[2]; 77431 (mecC)
  Time to cidality (≧3 log decrease): 1-2 h
  Change in cell density at 24 h relative to starting inoculum: +1.9 log CFU/mL
[2]; 77601 (mecC)
  Change in cell density at 24 h relative to starting inoculum: +0.1 log CFU/mL
[2]; 77950 (mecC)
  Time to cidality (≧3 log decrease): 1-2 h
  Change in cell density at 24 h relative to starting inoculum: +0.9 log CFU/mL
[2]; 77964 (mecC)
  Time to cidality (≧3 log decrease): 1-2 h
  Change in cell density at 24 h relative to starting inoculum: +1.2 log CFU/mL
[2]; 78085 (mecC)
  Time to cidality (≧3 log decrease): 2-4 h
  Change in cell density at 24 h relative to starting inoculum: +1.5 log CFU/mL
[2]; 78651 (mecC)
  Change in cell density at 24 h relative to starting inoculum: +1.6 log CFU/mL
[2]; ATCC 29213 (MSSA)
  Time to cidality (≧3 log decrease): 2-4 h
  Change in cell density at 24 h relative to starting inoculum: +3.9 log CFU/mL
[2]; ATCC 33591 (mecA)
  Change in cell density at 24 h relative to starting inoculum: +3.8 log CFU/mL
[2]; ATCC 43300 (mecA)
  Time to cidality (≧3 log decrease): 1-2 h
  Change in cell density at 24 h relative to starting inoculum: +3.6 log CFU/mL
[2]; S. aureus strains, fCmin
  Activity in time-kill assay: little to no effect or was bacteriostatic
